In US11161854B2, “Indazolyl-spiro[2.2]pentane-carbonitrile derivatives as LRRK2 inhibitors, pharmaceutical compositions, and uses thereof” (Merck Sharp & Dohme Corp., priority 2017, dated 2021) one finds IC50 data, which are given here for 33 compounds.

The target of this assay is GST-tagged truncated human mutant G2019S LRRK2 (Homo sapiens (Human), UniProt Q5S007, G2019S). Description: LRRK2 G2019S Km ATP LanthaScreen Assay. The assay is classed as biochemical. As to conditions: 134 μM ATP (Km ATP); fluorescein-labeled LRRKtide substrate; mean IC50 values. The procedure: The IC50 values reported herein were measured as follows.
Biological Assay: LRRK2 Km ATP LanthaScreen™ Assay
The data presented for the Km ATP LanthaScreen™ Assay represents mean IC50 values based on several test results and may have reasonable deviations depending on the specific conditions and reagents used. Assays were performed in the presence of 134 μM ATP (Km ATP). Upon completion, the assay was stopped and phosphorylated substrate detected with a terbium (Tb)-labeled anti-pERM antibody (cat. no. PV4898). The compound dose response was prepared by diluting a 10 mM stock of compound to a maximum concentration of […] in 100% dimethylsulfoxide followed by custom fold serial dilution in dimethylsulfoxide nine times. Twenty nanoliters of each dilution was spotted via a Labcyte Echo onto a 384-well black-sided plate (Corning 3575) followed by 15 μl of a 1.25 nM enzyme solution in 1× assay buffer (50 mM Tris pH 8.5, 10 mM MgCl2, 0.01% Brij-35, 1 mM EGTA, 2 mM dithiothreitol, 0.05 mM sodium orthovanadate). Following a 15-minute incubation at room temperature, the kinase reaction was started with the addition of 5 μl of 400 nM fluorescein-labeled LRRKtide peptide substrate and 134 μM ATP solution in 1× assay buffer. The reaction was allowed to progress at ambient temperature for 90 minutes. The reaction was then stopped by the addition of 20 μl of TR-FRET Dilution Buffer (Life Technologies, Carlsbad, Calif.) containing 2 nM Tb-labeled anti-phospho LRRKtide antibody and 10 mM EDTA (Life Technologies, Carlsbad, Calif.). After an incubation of 1 hour at room temperature, the plate was read on an EnVision multimode plate reader (Perkin Elmer, Waltham, Mass.) with an excitation wavelength of 337 nm (Laser) and a reading emission at both 520 and 495 nm. […] Abase uses a 4 parameter (4P) logistic fit based on the Levenberg-Marquardt algorithm.
Background: TR-FRET usually uses a lanthanide donor and a delayed reading to cut background.

Chain of GST-tagged truncated human mutant G2019S LRRK2 (Q5S007 970-2527 G2019S): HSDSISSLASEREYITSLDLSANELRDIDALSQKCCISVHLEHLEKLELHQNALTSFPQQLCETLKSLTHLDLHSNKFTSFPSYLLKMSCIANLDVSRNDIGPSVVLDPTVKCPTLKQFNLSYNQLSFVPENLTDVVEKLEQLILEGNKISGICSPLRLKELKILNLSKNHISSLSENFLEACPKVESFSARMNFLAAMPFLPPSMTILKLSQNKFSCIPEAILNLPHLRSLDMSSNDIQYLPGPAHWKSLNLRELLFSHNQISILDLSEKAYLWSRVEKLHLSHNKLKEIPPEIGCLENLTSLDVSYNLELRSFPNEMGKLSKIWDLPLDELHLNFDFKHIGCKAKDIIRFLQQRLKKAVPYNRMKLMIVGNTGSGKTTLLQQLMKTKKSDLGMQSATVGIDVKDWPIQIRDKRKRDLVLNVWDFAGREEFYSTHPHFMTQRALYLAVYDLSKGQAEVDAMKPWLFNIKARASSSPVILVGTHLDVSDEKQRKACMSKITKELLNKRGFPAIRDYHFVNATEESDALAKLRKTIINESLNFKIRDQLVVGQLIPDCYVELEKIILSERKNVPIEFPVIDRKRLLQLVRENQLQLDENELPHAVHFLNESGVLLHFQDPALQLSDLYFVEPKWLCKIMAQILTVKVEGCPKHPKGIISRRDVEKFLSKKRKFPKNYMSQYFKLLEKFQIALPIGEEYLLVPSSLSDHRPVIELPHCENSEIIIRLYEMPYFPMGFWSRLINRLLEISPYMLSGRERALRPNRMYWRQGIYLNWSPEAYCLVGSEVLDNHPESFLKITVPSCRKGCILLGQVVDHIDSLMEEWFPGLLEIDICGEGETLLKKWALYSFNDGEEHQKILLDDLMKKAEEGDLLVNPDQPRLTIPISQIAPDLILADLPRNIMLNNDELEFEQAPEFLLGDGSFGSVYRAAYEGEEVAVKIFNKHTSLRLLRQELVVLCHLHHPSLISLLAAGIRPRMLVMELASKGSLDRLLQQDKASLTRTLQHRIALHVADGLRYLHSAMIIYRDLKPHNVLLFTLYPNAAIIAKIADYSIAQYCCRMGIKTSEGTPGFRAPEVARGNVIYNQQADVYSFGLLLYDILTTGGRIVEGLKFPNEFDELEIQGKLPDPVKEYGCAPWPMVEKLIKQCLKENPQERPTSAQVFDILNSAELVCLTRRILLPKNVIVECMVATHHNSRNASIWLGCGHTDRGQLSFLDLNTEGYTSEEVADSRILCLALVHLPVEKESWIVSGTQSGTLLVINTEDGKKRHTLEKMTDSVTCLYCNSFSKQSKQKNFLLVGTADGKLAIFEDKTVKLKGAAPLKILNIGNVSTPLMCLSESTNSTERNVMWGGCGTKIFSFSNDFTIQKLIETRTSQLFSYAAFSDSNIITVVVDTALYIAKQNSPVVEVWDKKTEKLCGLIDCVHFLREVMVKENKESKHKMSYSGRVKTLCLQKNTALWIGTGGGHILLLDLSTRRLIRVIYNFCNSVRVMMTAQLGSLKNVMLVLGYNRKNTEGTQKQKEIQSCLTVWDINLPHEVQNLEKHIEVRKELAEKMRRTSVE

The IC50 is the midpoint of a concentration-inhibition curve. Read a high IC50 as lower potency. For `CC(C)(O)C12CC(C1)N(c1cc(-n3ncc4cnc(C5(C#N)CC56CC6)cc43)ccn1)C2` (single isomer, unassigned) [Example 6.7-1, 1-(1-(2-(4-(2-hydroxypropan-2-yl)-2-azabicyclo[2.1.1]hexan-2-yl)pyridin-4-yl)-1H-pyrazolo[4,3-c]pyridin-6-yl)spiro[2.2]pentane-1-carbonitrile], inhibition was half-maximal at 59 nM (IC50).

Regarding `CC(C)(O)C12CC(C1)N(c1cc(-n3ncc4cnc(C5(C#N)CC56CC6)cc43)ccn1)C2` (single isomer, unassigned) [Example 6.7-2, 1-(1-(2-(4-(2-hydroxypropan-2-yl)-2-azabicyclo[2.1.1]hexan-2-yl)pyridin-4-yl)-1H-pyrazolo[4,3-c]pyridin-6-yl)spiro[2.2]pentane-1-carbonitrile], the IC50 was found to be 7.8 nM.

With `N#C[C@@]1(c2ccc3cnn(-c4cc(N5CC(O)C6(CC6)C5)ncn4)c3c2)CC12CC2` (single isomer, unassigned) [Example 3.11-2], the IC50 turned out to be 1.4 nM.

Consider `Cc1cc(-n2ncc3ccc([C@]4(C#N)CC45CC5)cc32)ncn1` [Example 11.7], for which the half-maximal inhibitory concentration (IC50) is 7.4 nM.

As for `CNc1nc(C)cc(-n2ncc3ccc([C@]4(C#N)CC45CC5)cc32)n1` [Example 4.25], the IC50 is 3.5 nM.

As for `Cc1nc(N2CCN3CCOC[C@@H]3C2)cc(-n2ncc3ccc([C@]4(C#N)CC45CC5)cc32)n1` [Example 4.17], the IC50 was 0.6 nM.

On to `N#C[C@@]1(c2ccc3cnn(-c4cc(C5CC5)ncn4)c3c2)CC12CC2` [Example 4.21], for which the midpoint of inhibition, the IC50, lay at 6.5 nM.

`CC(C)(O)C12CC(C1)N(c1cc(-n3ncc4cc(F)c(C5(C#N)CC56CC6)cc43)ncn1)C2` (single isomer, unassigned) [Example 5.5-2, 1-(5-fluoro-1-(6-(4-(2-hydroxypropan-2-yl)-2-azabicyclo[2.1.1]hexan-2-yl)pyrimidin-4-yl)-1H-indazol-6-yl)spiro[2.2]pentane-1-carbonitrile]: the IC50 turned out to be 31.6 nM.

`COCc1nc(N2C[C@@H](C)[C@@](C)(O)[C@@H](C)C2)cc(-n2ncc3ccc([C@]4(C#N)CC45CC5)cc32)n1` [Example 4.10] registered an IC50 of 0.6 nM.

With `C[C@H]1CN(c2cc(-n3ncc4ccc([C@@]5(C#N)CC56CC6)cc43)ncn2)CCN1C1CCOC1` (single isomer, unassigned) [Example 3.8-3], the midpoint of inhibition, the IC50, lay at 1.3 nM.

Turning to `C[C@H]1CN(c2cc(-n3ncc4ccc([C@]5(C#N)CC56CC6)cc43)ccn2)CCN1S(C)(=O)=O` [Example 6.5], the midpoint of inhibition, the IC50, lay at 1.5 nM.

With `N#C[C@@]1(c2ccc3cnn(-c4cc(N5CC(O)C6(CC6)C5)ncn4)c3c2)CC12CC2` (single isomer, unassigned) [Example 3.11-4], the half-maximal inhibitory concentration (IC50) was 0.6 nM.

`C[C@H]1CN(c2cc(-n3ncc4ccc([C@]5(C#N)CC56CC6)cc43)cc(F)n2)CCN1C1COC1` [Example 6.4] came in with an IC50 of 6.8 nM.

The compound `COCc1nc(N2CC(OC)C2)cc(-n2ncc3ccc([C@]4(C#N)CC45CC5)cc32)n1` [Example 4.5] displayed an IC50 of 2.6 nM.

In turn, `CC(C)(O)[C@@H]1CCN(c2cc(-n3ncc4ccc([C@@]5(C#N)CC56CC6)cc43)ccn2)C1` [Example 6.2-1] registered an IC50 of 1.8 nM.

Regarding `CC(C)(O)C12CC(C1)N(c1cc(-n3ncc4cc(F)c(C5(C#N)CC56CC6)cc43)ncn1)C2` (single isomer, unassigned) [Example 5.5-1, 1-(5-fluoro-1-(6-(4-(2-hydroxypropan-2-yl)-2-azabicyclo[2.1.1]hexan-2-yl)pyrimidin-4-yl)-1H-indazol-6-yl)spiro[2.2]pentane-1-carbonitrile], the IC50 is 3.9 nM.

Regarding `Cc1nc(N2C[C@@H]3C[C@H]2CN3C2(C)COC2)cc(-n2ncc3ccc([C@]4(C#N)CC45CC5)cc32)n1` [Example 11.4], the midpoint of inhibition, the IC50, lay at 8.6 nM.

For the compound `CS(=O)(=O)N1CCN(c2cc(-n3ncc4ccc([C@]5(C#N)CC56CC6)cc43)ccn2)CC1` [Example 4.14], the IC50 came out at 2.8 nM.

`CC(C)(O)C12CC(C1)N(c1cc(-n3ncc4ccc([C@@]5(C#N)CC56CC6)cc43)ccn1)C2` [Example 6.1-2] registered an IC50 of 5.3 nM.

`C[C@@H]1CN(c2cc(-n3ncc4cnc(C5(C#N)CC56CC6)cc43)ncn2)C[C@H](C)[C@]1(C)O` (single isomer, unassigned) [Example 5.4-1] displayed an IC50 of 15 nM.

Compound `CC(C)(O)[C@@H]1CCN(c2cc(-n3ncc4cc(F)c(C5(C#N)CC56CC6)cc43)ncn2)C1` (single isomer, unassigned) [Example 5.7-1] registered a half-inhibitory concentration (IC50) of 21.7 nM.

Take `CN1CCOC2(C1)CN(c1cc(-n3ncc4ccc([C@]5(C#N)CC56CC6)cc43)ncn1)C2` [Example 4.13]: the IC50 turned out to be 0.6 nM.

Regarding `C[C@H]1CN(c2cc(-n3ncc4ccc(C5(C#N)CC56CC6)cc43)ncn2)CCN1C1COC1` (single isomer, unassigned) [Example 3.1, (R or S)-1-(1-(6-((S)-3-methyl-4-(oxetan-3-yl)piperazin-1-yl)pyrimidin-4-yl)-1H-indazol-6-yl)spiro[2.2]pentane-1-carbonitrile], the IC50 was 0.6 nM.

As for `C[C@@H]1CN(c2cc(-n3ncc4ccc([C@]5(C#N)CC56CC6)cc43)ncn2)CCN1C1COC1` [Example 3.1-2], 0.6 nM corresponded to half-maximal inhibition (IC50).

Turning to `CC(C)(O)[C@@H]1CCN(c2cc(-n3ncc4ccc(C5(C#N)CC56CC6)cc43)cnn2)C1` (single isomer, unassigned) [Example 10.4-1], the IC50 was found to be 18.7 nM.

`COCc1nc(N2CCN(C3COC3)[C@@H](C)C2)cc(-n2ncc3ccc([C@]4(C#N)CC45CC5)cc32)n1` [Example 4.11-2] registered a 50% inhibitory concentration (IC50) of 0.7 nM.

`CC(C)(O)C12CC(C1)N(c1cc(-n3ncc4ccc([C@]5(C#N)CC56CC6)cc43)nc(N3CCC3)n1)C2` [Example 8.5, (S)-1-(1-(2-(azetidin-1-yl)-6-(4-(2-hydroxypropan-2-yl)-2-azabicyclo[2.1.1]hexan-2-yl)pyrimidin-4-yl)-1H-indazol-6-yl)spiro[2.2]pentane-1-carbonitrile] yielded an IC50 of 9.8 nM.

The compound `COCc1nc(N2C[C@@H](C)[C@@](C)(O)[C@@H](C)C2)cc(-n2ncc3ccc([C@]4(C#N)CC45CC5)cc32)n1` [Example 3.3] registered an IC50 of 1 nM.

Regarding `C[C@@H]1CN(c2cc(-n3ncc4ccc([C@]5(C#N)CC56CC6)cc43)ncn2)C[C@H](C)N1C1COC1` [Example 4.1], the midpoint of inhibition, the IC50, lay at 0.6 nM.

In turn, `C[C@H]1CN(c2cc(-n3ncc4ccc([C@@]5(C#N)CC56CC6)cc43)ncn2)CCN1C1CCOC1` (single isomer, unassigned) [Example 3.8-2] came in with an IC50 of 0.8 nM.

Take `CC(C)(O)[C@H]1CN(c2cc(-n3ncc4ccc([C@]5(C#N)CC56CC6)cc43)ncn2)C[C@H]1F` [Example 4.12-1]: 1.2 nM corresponded to half-maximal inhibition (IC50).

Consider `CC(C)(O)C12CC(C1)N(c1cc(-n3ncc4ccc(C5(C#N)CC56CC6)cc43)cnn1)C2` (single isomer, unassigned) [Example 10.3-2, (R or S)-1-(1-(6-(4-(2-hydroxypropan-2-yl)-2-azabicyclo[2.1.1]hexan-2-yl)pyridazin-4-yl)-1H-indazol-6-yl)spiro[2.2]pentane-1-carbonitrile], for which the IC50 was 15.4 nM.

In turn, `C[C@@H]1CN(c2cc(-n3ncc4ccc([C@]5(C#N)CC56CC6)cc43)ncn2)CCN1C1CCOC1` (single isomer, unassigned) [Example 3.7-4] returned an IC50 of 2 nM.
